Results taken from patent US20030073731A1, “Compositions and methods of the use thereof achiral analogues of CC-1065 and the duocarmycins” (priority 2000, published 2003).

Tests used:
[1] = test system: A498; assay: NCI in-vitro cytotoxicity screen, Renal Cancer panel; assay type: cell-based; conditions: Homo sapiens
Method: The compounds of this invention were also tested against the panel of 60 human cancer cell lines at the National Cancer Institute, Bethesda, Md. […] The cytotoxicity studies were conducted using a 48 hour exposure, and measuring the optical density of sulforhodamine B-derived color.

[2] = test system: MCF7; assay: cells; conditions: Homo sapiens
[3] = test system: SN12C; assay: cells; conditions: Homo sapiens
[4] = test system: SF-268; assay: cells; conditions: Homo sapiens
[5] = test system: KM12; assay: cells; conditions: Homo sapiens
[6] = test system: MDA-MB-435; assay: cells; conditions: Homo sapiens
[7] = test system: CAKI-1
[8] = test system: HCT-116
[9] = test system: PC-3
[10] = test system: HS 578T
[11] = test system: LOX IMVI
[12] = test system: HCT-15
[13] = test system: SNB-75
[14] = test system: HOP-62

Compound: COC(=O)c1[nH]c2c(O)cc(NC(=O)c3cc4cc(OC)c(OC)c(OC)c4[nH]3)c(CCCl)c2c1C(=O)OC [Compound 22, Dimethyl 4-(2-chloroethyl)-7-hydroxy-5-(5,6,7-trimethoxyindole-2-carboxamido)indole-2,3-dicarboxylate]
- GI50 ([1]; A498): 164 nM
- CC50 ([1]; A498, read-out: LC50): 20700 nM
- GI50 ([2]; MCF7): 22.4 nM
- CC50 ([2]; MCF7, read-out: LC50): 47500 nM
- GI50 [3]: 179 nM
- CC50 ([3]; read-out: LC50): > 50000 nM
- GI50 ([4]; SF-268): 13.8 nM
- CC50 ([4]; SF-268, read-out: LC50): 1170 nM
- GI50 ([5]; KM12): 87.4 nM
- CC50 ([5]; KM12, read-out: LC50): 474 nM
- GI50 ([6]; MDA-MB-435): 137 nM
- CC50 ([6]; MDA-MB-435, read-out: LC50): > 50000 nM

Compound: 4-(2-Chloroethyl)-3-[5-(5-benzofuran-2-carboxamido)indole-2-carboxamido]phenol [Compound 1]
- GI50 [7]: 2300 nM
- TGI [7]: 7.19E-06 Molar
- GI50 [8]: 1940 nM
- TGI [8]: 5.73E-06 Molar
- GI50 [9]: 969 nM
- TGI [9]: 3.99E-06 Molar
- GI50 [10]: 11800 nM
- TGI [10]: 3.96E-06 Molar
- GI50 [11]: 2430 nM
- TGI [11]: 6.93E-06 Molar
- GI50 [12]: 1910 nM
- TGI [12]: 4.89E-06 Molar
- GI50 [13]: 18600 nM
- TGI [13]: 3.32E-05 Molar
- GI50 [14]: 453 nM
- TGI [14]: 3.07E-06 Molar
